According to Sander's compilation of Henry's law constants (doi:10.1016/s0045-6535(99)00082-x):

Test: Henry solubility constant Hcp at 298.15 K (mol/(m3 Pa))
Conditions: reference: Altschuh et al. (1999)

SMILES	Henry solubility constant Hcp
Clc1ccc(C(c2ccc(Cl)cc2)C(Cl)(Cl)Cl)cc1 [1,1,1-trichloro-2,2-bis-(4-chlorophenyl)-ethane]	1.2
Clc1ccc(C(c2ccc(Cl)cc2)C(Cl)Cl)cc1 [1,1-dichloro-2,2-bis-(4-chlorophenyl)-ethane]	1.5
ClC(Cl)=C(c1ccc(Cl)cc1)c1ccc(Cl)cc1 [1,1-dichloro-2,2-bis-(4-chlorophenyl)-ethene]	0.24
CCC(O)CO (stereo unspecified) [1,2-butanediol]	> 340
O=[N+]([O-])c1ccc(Cl)c(Cl)c1 [1,2-dichloro-4-nitrobenzene]	1.2
OCCCCO [1,4-butanediol]	> 900
O=[N+]([O-])c1cc(Cl)ccc1Cl [1,4-dichloro-2-nitrobenzene]	0.82
Nc1cccc(Cl)c1 [1-amino-3-chlorobenzene]	9.8
CCCCN [1-butanamine]	0.56
CCCCCCCCCCO [1-decanol]	0.31
CCc1cccc2ccccc12 [1-ethylnaphthalene]	0.014
CCCCCCCO [1-heptanol]	0.86
CCCCCCO [1-hexanol]	0.98
Cc1ccccc1O [1-hydroxy-2-methylbenzene]	6.3
Cc1cccc(O)c1 [1-hydroxy-3-methylbenzene]	12
Cc1ccc(O)cc1 [1-hydroxy-4-methylbenzene]	> 2.9
Cc1cccc2ccccc12 [1-methylnaphthalene]	0.019
Nc1cccc2ccccc12 [1-naphthylamine]	160
O=[N+]([O-])c1cccc2ccccc12 [1-nitronaphthalene]	5.6
CCCCCCCCO [1-octanol]	0.65
CCCO [1-propanol]	2.7
CCCCCCCCCCCCCN [1-tridecanamine]	0.09

SMILES	Henry solubility constant Hcp
OCC#CCO [2-butyne-1,4-diol]	> 2000
Nc1ccc([N+](=O)[O-])cc1Cl [2-chloro-4-nitrobenzenamine]	1000
CCc1ccc2ccccc2c1 [2-ethylnaphthalene]	0.018
CC(C)CO [2-methyl-1-propanol]	1.1
C=CC(C)(C)O [2-methyl-3-buten-2-ol]	0.47
C#CC(C)(C)O [2-methyl-3-butyn-2-ol]	2.5
Cc1ccccc1N [2-methylbenzenamine]	5
Cc1ccc2ccccc2c1 [2-methylnaphthalene]	0.016
Nc1ccccc1[N+](=O)[O-] [2-nitrobenzenamine]	170
OCCc1ccccc1 [2-phenylethanol]	> 37
CC(C)O [2-propanol]	0.92
C=CC(C)(O)CCC=C(C)C (stereo unspecified) [3,7-dimethyl-1,6-octadien-3-ol]	0.46
O=[N+]([O-])c1cccc(Cl)c1 [3-chloronitrobenzene]	0.73
Cc1cccc(N)c1 [3-methylbenzenamine]	5.9
CC1CCCC(O)C1 (stereo unspecified) [3-methylcyclohexanol]	2.7
Cc1cccc([N+](=O)[O-])c1 [3-nitrotoluene]	1.1
OCCCc1ccccc1 [3-phenyl-1-propanol]	> 180
O=[N+]([O-])c1ccc(Cl)cc1 [4-chloronitrobenzene]	2
Nc1ccc([N+](=O)[O-])cc1 [4-nitrobenzenamine]	8600
Cc1ccc([N+](=O)[O-])cc1 [4-nitrotoluene]	1.8
OCCCCc1ccccc1 [4-phenyl-1-butanol]	> 6.7
CCNc1ccccc1 [(ethylamino)-benzene]	1

SMILES	Henry solubility constant Hcp
OCc1ccccc1 [(hydroxymethyl)-benzene]	> 37
CCCCCCCCCCCCN(C)C [N,N-dimethyl-1-dodecanamine]	> 4
CN(C)C1CCCCC1 [N,N-dimethylcyclohexylamine]	0.42
ClC1=C(Cl)[C@]2(Cl)[C@H]3[C@H]([C@@H]4C=C[C@H]3C4)[C@@]1(Cl)C2(Cl)Cl [aldrin]	0.22
Nc1ccccc1 [aminobenzene]	5.2
c1ccccc1 [benzene]	0.0037
c1ccc2c(c1)cc1ccc3cccc4ccc2c1c34 [benzo[a]pyrene]	13
OC1CCCCCCCCCCC1 [cyclododecanol]	3.4
NC1CCCCC1 [cyclohexanamine]	2.4
CCCCNCCCC [dibutylamine]	1
ClC1=C(Cl)[C@]2(Cl)[C@@H]3[C@@H]4C[C@@H]([C@H]5O[C@@H]45)[C@@H]3[C@@]1(Cl)C2(Cl)Cl [dieldrin]	0.98
ClC1=C(Cl)[C@]2(Cl)[C@@H]3[C@H]4C[C@H]([C@@H]5O[C@H]45)[C@@H]3[C@@]1(Cl)C2(Cl)Cl [endrin]	1.6
CCO [ethanol]	1.3
ClC1=C(Cl)C2(Cl)C3C(Cl)C=CC3C1(Cl)C2(Cl)Cl (stereo unspecified) [heptachlor]	0.034
ClC1=C(Cl)C2(Cl)C3C4OC4C(Cl)C3C1(Cl)C2(Cl)Cl (stereo unspecified) [heptachlorepoxide]	0.47
COc1ccc(C(c2ccc(OC)cc2)C(Cl)(Cl)Cl)cc1 [methoxychlor]	49
Cc1ccccc1 [methylbenzene]	0.0017
c1ccc2ccccc2c1 [naphthalene]	0.018
O=[N+]([O-])c1ccccc1 [nitrobenzene]	1.2
ClC1C(Cl)C(Cl)C(Cl)C(Cl)C1Cl (stereo not drawn) [α-1,2,3,4,5,6-hexachlorocyclohexane]	0.81
ClC1C(Cl)C(Cl)C(Cl)C(Cl)C1Cl (stereo not drawn) [β-1,2,3,4,5,6-hexachlorocyclohexane]	22
ClC1C(Cl)C(Cl)C(Cl)C(Cl)C1Cl (stereo unspecified) [γ-1,2,3,4,5,6-hexachlorocyclohexane]	1.9
